The NIST ThermoML archive (doi:10.1021/je500271z)
Numbers after ± are expanded uncertainties.

Assay: osmotic coefficient (dimensionless); mn = molality of the nth substance listed, in mol/kg
Conditions: 298.15 K, Liquid, vapor pressure osmometry

osmotic coefficient (m1 = 0.2485): 0.95 ± 0.02 | osmotic coefficient (m1 = 0.5058): 0.922 ± 0.02 | osmotic coefficient (m1 = 1.993): 0.976 ± 0.02
Compound: [Cl-].[Na+] [sodium chloride] + O
